Entries after “also recorded” stand apart in the source; their conditions may differ.
How the values were obtained:
astrocytic activation = settings: DeLeo et al. 1987; cited from earlier work
[1] = test system: L5 spinal nerve transected mice; test: Mechanical allodynia after L5 spinal nerve transection in eGFP-GLT-1/DsRed-GLAST transgenic mice; type: in vivo, mouse; settings: for first day on which inhibition of mechanical allodynia was evident: 10 mg/kg i.p. daily
Protocol: In addition to studies using a rat model of pain for examining the role of glutamate transporters in the therapeutic response (analgesic) of propentofylline treatment, studies were also performed in a double transgenic reporter mouse line that expressed eGFP-GLT-1/DsRed-GLAST. Use of the transgenic mouse model further defined the effect of propentofylline on glutamate transporters, GLT-1 and GLAST. The animals were injected intraperitoneally with 10 mg/kg propentofylline in sterile saline or saline vehicle alone (n=5 to 8 per group). The first injections were administered one hour prior to L5 spinal nerve transection and continued daily in the evening (between 5 and 7 PM) until day 12 post-transection. Mice received either an L5 spinal nerve transection or sham surgery on day 0. The development of mechanical allodynia was monitored on days 1, 3, 5, 7, 9 and 12 as described for rats previously. The monitoring was performed in the morning at approximately 15 hours post-propentofylline or saline injection. Mice were transcardially perfused on day 12 post-transection, spinal cords were removed, and the tissue was processed for immunohistochemistry.
Transgenic mice on a C57B1/6 background were created according to the methods previously described (Regan et al. 2006. J. Neuroscience, in press). Briefly, in order to determine where in the central nervous system GLAST is expressed, transgenic mice were created using a bacterial artificial chromosome containing the GLAST gene plus 18 kb of DNA upstream of the first exon and 60 kb downstream of the last exon. DsRed cDNA was inserted into the first exon to allow expression of DsRed instead of GLAST when the promoter is active. Similarly, in order to investigate the distribution of GLT-1, transgenic mice expressing GLT-1 with eGFP running from the promoter were also created. These two types of transgenic mice were crossed and the resultant double transgenic eGFP-GLT-1/DsRed-GLAST mice were used in the experiments at 8 to 10 weeks of age.

[2] = test system: Na+-dependent glutamate transport; test: Na+-dependent [3H]-glutamate uptake in cultured astrocytes; type: cell-based, rat
Protocol: Primary astrocytes were plated in 6-well plates, as described above. […] Where indicated, 100 μM dihydrokainate (DHK) was added to wells for 10 minutes before the addition of the substrate. Subsequently, [^3H]-glutamate in Na^+ Krebs buffer or Na^+-free Krebs buffer (choline buffer) was added for 4 minutes at 37° C. The reaction was stopped by washing three times with ice cold buffer (0.05 M Tris/0.16 M NaCl, pH 7.4), and cells were lysed with 1 ml 0.1 N NaOH. The radioactivity in a 500 μl lysate aliquot was determined by liquid scintillation counting and a fraction of the lysate was also used for determination of protein concentration using the Lowry method (DC assay, Bio-Rad, Hercules, Calif.). Na^+-dependent transport was calculated as the difference in the radioactivity accumulated in the presence and absence of Na^+ and calculated as nmol/mg protein/min. Results are expressed as uptake relative to control samples.

GFAP = GFAP expression in mouse spinal cord dorsal horn; type: in vivo; settings: dorsal horn upper laminae, day 12, 10 mg/kg i.p. daily
Protocol: With these in vivo data collected, further experiments were performed in the transgenic mice to more clearly define the effects of propentofylline treatment on GLT-1 and GLAST in the spinal cord. As discussed above, following in vivo testing, mice were transcardially perfused and tissue was fixed with paraformaldehyde. Lumbar spinal cord sections were identified and post-fixed in paraformaldehyde. After one week in sucrose to prevent freeze fracture, spinal cord segments were frozen in dry ice, mounted and prepared with cryostat sectioning. Sections were then subjected to immunohistochemical analysis. […] In order to quantitate the relative number of eGFP (marker for GLT-1) or DsRed (marker for GLAST) puncta in each spinal cord dorsal horn, images using a fluorescence microscope were taken with a Q-Fire cooled camera (397 ms exposure). […] An observer blind to the treatment groups was used to count the relative number of GLT-1 or GLAST positive puncta in the ipsilateral (injured) dorsal horn versus the contralateral (non-injured) dorsal horn. […]
As described previously with rats, mice were transcardially perfused with 0.1 M PBS (phosphate-buffered saline), pH 7.4, followed by 4%-paraformaldehyde in PBS on day 12 post-L5 spinal nerve transection. […] The sections were examined with a fluorescence microscope, and images were captured with a Q-Fire cooled camera. […]

## CCCn1cnc2c1c(=O)n(CCCCC(C)=O)c(=O)n2C [propentofylline]
Astrocytic activation
  astrocytic activation: attenuate astrocytic activation
[1]; 0.008 g filament
  first day on which inhibition of mechanical allodynia was evident: 3 days
[1]; 10 mg/kg intraperitoneally daily, from one hour prior to transection
  mechanical allodynia (0.008 g and 0.02 g von Frey filaments): significant decrease in mechanical allodynia; also recorded: robustly inhibited the development of mechanical allodynia in mice; also recorded: remained similar to the sham control mice at every time point for both filaments
[1]; 0.02 g filament
  first day on which inhibition of mechanical allodynia was evident: 1 days
[2]; 100 μM DHK for 10 minutes before substrate
  sensitivity of increased glutamate transport to DHK inhibition: sensitive to DHK inhibition
[2]; 100 μM, 7 days
  increase in glutamate uptake: 1.7 fold
[2]; 1000 μM, 7 days
  increase in Na+-dependent glutamate transport: 2.1 fold
[2]; 7-day treated cultures
  glutamate uptake, in words: dose-dependent increase in glutamate uptake
GFAP
  injury-induced GFAP expression: suppressed injury-induced GFAP expression

From patent US20090227606A1, “Methods for Preventing or Treating Acute and Chronic Pain” (priority 2006, published 2009)
